Earlier results in patent US20060136139A1, “Rapid computational identification of targets” (priority 2004, published 2006).

Experiments:
PP2B = conditions: experimental value beside the computed energy
PP1 = conditions: experimental value beside the computed energy
PP2A = conditions: experimental value beside the computed energy
PP2C = conditions: experimental value beside the computed energy
[1] = at concentrations used in experimental inhibition studies

| aggregation of kinase inhibitor [1] | SMILES | IC50 (PP2B) | IC50 (PP1) | IC50 (PP2A) | IC50 (PP2C) |
| --- | --- | --- | --- | --- | --- |
|  | C=C1[C@@H](O)[C@@H]2O[C@]3(CC[C@H](/C=C/[C@@H](C)[C@@H]4CC(C)=C[C@@]5(O[C@H](C[C@@](C)(O)C(=O)O)CC[C@H]5O)O4)O3)CC[C@H]2O[C@@H]1[C@@H](O)C[C@H](C)[C@H]1O[C@@]2(CCCCO2)CC[C@H]1C [okadaic acid] | 5000 nM | 42 nM | 0.51 nM | > 10000 nM |
| exhibit this behavior | O=c1c(O)c(-c2ccc(O)c(O)c2)oc2cc(O)cc(O)c12 [quercetin] |  |  |  |  |
